Assay results reported in ChEMBL document CHEMBL1909294, “Translating clinical findings into knowledge in drug safety evaluation--drug induced liver injury prediction system (DILIps)” (PLoS Comput Biol, 2011).

What was measured:
Hepatotoxicity [1] = tested on: Hepatotoxicity;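 on HepSE bilirubinemia: bilirubinemia hepatic side effect score drawn from the DILIps training data, a prediction system for drug-induced liver injury; call rule not given here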;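 on HepSE cholecystitis: Cholecystitis-related hepatic side effect score drawn from the DILIps (drug-induced liver injury prediction) training data set; call rule not given here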;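 on HepSE cholelithiasis: hepatic side effect score for cholelithiasis, drawn from the DILIps training data for predicting drug-induced liver injury; call rule not given here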;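 on HepSE cirrhosis: cirrhosis hepatic side effect score taken from the DILIps (drug-induced liver injury prediction) training set; call rule not given here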;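 on HepSE elevated liver function tests: hepatic side effect score for raised liver function tests, as recorded in the DILIps training set used for predicting drug-induced liver injury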; on HepSE hepatic failure: call rule not given here;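 on HepSE hepatomegaly: hepatic side effect score for hepatomegaly, taken from the training set of the DILIps drug-induced liver injury prediction system; call rule not given here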
Hepatotoxicity [2] = tested on: Hepatotoxicity; remark: listed apart in the source;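 on HepSE bilirubinemia: bilirubinemia hepatic side effect score drawn from the DILIps training data, a prediction system for drug-induced liver injury; call rule not given here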;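 on HepSE cholecystitis: Cholecystitis-related hepatic side effect score drawn from the DILIps (drug-induced liver injury prediction) training data set; call rule not given here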;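 on HepSE cholelithiasis: hepatic side effect score for cholelithiasis, drawn from the DILIps training data for predicting drug-induced liver injury; call rule not given here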;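 on HepSE cirrhosis: cirrhosis hepatic side effect score taken from the DILIps (drug-induced liver injury prediction) training set; call rule not given here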;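 on HepSE elevated liver function tests: hepatic side effect score for raised liver function tests, as recorded in the DILIps training set used for predicting drug-induced liver injury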; on HepSE hepatic failure: call rule not given here;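 on HepSE hepatomegaly: hepatic side effect score for hepatomegaly, taken from the training set of the DILIps drug-induced liver injury prediction system; call rule not given here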
Hepatotoxicity [3] = tested on: Hepatotoxicity; remark: listed apart in the source;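 on HepSE bilirubinemia: bilirubinemia hepatic side effect score drawn from the DILIps training data, a prediction system for drug-induced liver injury; call rule not given here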;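 on HepSE cholecystitis: Cholecystitis-related hepatic side effect score drawn from the DILIps (drug-induced liver injury prediction) training data set; call rule not given here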;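 on HepSE cholelithiasis: hepatic side effect score for cholelithiasis, drawn from the DILIps training data for predicting drug-induced liver injury; call rule not given here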;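 on HepSE cirrhosis: cirrhosis hepatic side effect score taken from the DILIps (drug-induced liver injury prediction) training set; call rule not given here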;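 on HepSE elevated liver function tests: hepatic side effect score for raised liver function tests, as recorded in the DILIps training set used for predicting drug-induced liver injury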; on HepSE hepatic failure: call rule not given here
Hepatotoxicity [4] = tested on: Hepatotoxicity; remark: listed apart in the source;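 on HepSE bilirubinemia: bilirubinemia hepatic side effect score drawn from the DILIps training data, a prediction system for drug-induced liver injury; call rule not given here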;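 on HepSE cholecystitis: Cholecystitis-related hepatic side effect score drawn from the DILIps (drug-induced liver injury prediction) training data set; call rule not given here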;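 on HepSE cholelithiasis: hepatic side effect score for cholelithiasis, drawn from the DILIps training data for predicting drug-induced liver injury; call rule not given here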;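 on HepSE cirrhosis: cirrhosis hepatic side effect score taken from the DILIps (drug-induced liver injury prediction) training set; call rule not given here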;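 on HepSE elevated liver function tests: hepatic side effect score for raised liver function tests, as recorded in the DILIps training set used for predicting drug-induced liver injury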; on HepSE hepatic failure: call rule not given here
Hepatotoxicity [5] = tested on: Hepatotoxicity; remark: listed apart in the source; on HepSE hepatic failure: call rule not given here
Hepatotoxicity [6] = tested on: Hepatotoxicity; remark: listed apart in the source; on HepSE hepatic failure: call rule not given here
Hepatotoxicity [7] = tested on: Hepatotoxicity; remark: listed apart in the source
Hepatotoxicity [8] = tested on: Hepatotoxicity; remark: listed apart in the source
Hepatotoxicity [9] = tested on: Hepatotoxicity; remark: listed apart in the source
Hepatotoxicity [10] = tested on: Hepatotoxicity; remark: listed apart in the source
Hepatotoxicity [11] = tested on: Hepatotoxicity; remark: listed apart in the source
Hepatotoxicity [12] = tested on: Hepatotoxicity; remark: listed apart in the source
Hepatotoxicity [13] = tested on: Hepatotoxicity; remark: listed apart in the source
Hepatotoxicity [14] = tested on: Hepatotoxicity; remark: listed apart in the source

Row | SMILES | HepSE_bilirubinemia (Hepatotoxicity [1]; Liver) | HepSE_cholecystitis (Hepatotoxicity [2]; Liver) | HepSE_cholelithiasis (Hepatotoxicity [3]; Liver) | HepSE_cirrhosis (Hepatotoxicity [4]; Liver) | HepSE_elevated liver function tests (Hepatotoxicity [5]; Liver) | HepSE_liver function tests abnormal (Hepatotoxicity [13]; Liver) | HepSE_bilirubinemia (Hepatotoxicity [1]) | HepSE_cholecystitis (Hepatotoxicity [2]) | HepSE_cholelithiasis (Hepatotoxicity [3]) | HepSE_cirrhosis (Hepatotoxicity [4]) | HepSE_elevated liver function tests (Hepatotoxicity [5]) | HepSE_hepatic failure (Hepatotoxicity [6]) | HepSE_hepatic necrosis (Hepatotoxicity [7]) | HepSE_hepatitis (Hepatotoxicity [8]) | HepSE_hepatomegaly (Hepatotoxicity [9]) | HepSE_jaundice (Hepatotoxicity [10]) | HepSE_liver disease (Hepatotoxicity [11]) | HepSE_liver fatty (Hepatotoxicity [12]) | HepSE_liver function tests abnormal (Hepatotoxicity [13]) | HepSE_Combined Scores (Hepatotoxicity [14]) | further results
1 | OC(CCN1CCCCC1)(c1ccccc1)C1CCCCC1 (stereo unspecified) [TRIHEXYPHENIDYL] | 0 | 0 | 0 | 0 | 0 | 0 | – | – | – | – | – | – | – | – | – | – | – | – | – | – | HepSE_hepatic failure (Hepatotoxicity [6]; Liver): 0; HepSE_hepatic necrosis (Hepatotoxicity [7]; Liver): 0; HepSE_hepatitis (Hepatotoxicity [8]; Liver): 0; HepSE_hepatomegaly (Hepatotoxicity [9]; Liver): 0; HepSE_jaundice (Hepatotoxicity [10]; Liver): 0; HepSE_liver disease (Hepatotoxicity [11]; Liver): 0; HepSE_liver fatty (Hepatotoxicity [12]; Liver): 0; HepSE_Combined Scores (Hepatotoxicity [14]; Liver): 0
2 | COc1cc(Cc2cnc(N)nc2N)cc(OC)c1OC [TRIMETHOPRIM] | 0 | 0 | 0 | 0 | 0 | 0 | – | – | – | – | – | – | – | – | – | – | – | – | – | – | HepSE_hepatic failure (Hepatotoxicity [6]; Liver): 0; HepSE_hepatic necrosis (Hepatotoxicity [7]; Liver): 0; HepSE_hepatitis (Hepatotoxicity [8]; Liver): 0; HepSE_hepatomegaly (Hepatotoxicity [9]; Liver): 0; HepSE_jaundice (Hepatotoxicity [10]; Liver): 1; HepSE_liver disease (Hepatotoxicity [11]; Liver): 0; HepSE_liver fatty (Hepatotoxicity [12]; Liver): 0; HepSE_Combined Scores (Hepatotoxicity [14]; Liver): 1
3 | COc1cc(NCc2ccc3nc(N)nc(N)c3c2C)cc(OC)c1OC [TRIMETREXATE] | – | – | – | – | – | – | 0 | 0 | 0 | 0 | 0 | 0 | 0 | 0 | 0 | 0 | 0 | 0 | 0 | 0 | –
4 | CC(CN(C)C)CN1c2ccccc2CCc2ccccc21 (stereo unspecified) [TRIMIPRAMINE] | – | – | – | – | – | – | 0 | 0 | 0 | 0 | 0 | 0 | 0 | 0 | 0 | 1 | 0 | 0 | 0 | 1 | –
5 | Cc1c(C)c2c(c(C)c1O)CCC(C)(COc1ccc(CC3SC(=O)NC3=O)cc1)O2 (stereo unspecified) [TROGLITAZONE] | – | – | – | – | – | – | 0 | 0 | 0 | 0 | 0 | 0 | 0 | 1 | 0 | 1 | 0 | 0 | 1 | 3 | –
6 | NC(CO)(CO)CO [TROMETHAMINE] | 0 | 0 | 0 | 0 | 0 | 0 | – | – | – | – | – | – | – | – | – | – | – | – | – | – | HepSE_hepatic failure (Hepatotoxicity [6]; Liver): 0; HepSE_hepatic necrosis (Hepatotoxicity [7]; Liver): 0; HepSE_hepatitis (Hepatotoxicity [8]; Liver): 0; HepSE_hepatomegaly (Hepatotoxicity [9]; Liver): 0; HepSE_jaundice (Hepatotoxicity [10]; Liver): 0; HepSE_liver disease (Hepatotoxicity [11]; Liver): 0; HepSE_liver fatty (Hepatotoxicity [12]; Liver): 0; HepSE_Combined Scores (Hepatotoxicity [14]; Liver): 0
7 | CCN(Cc1ccncc1)C(=O)C(CO)c1ccccc1 (stereo unspecified) [TROPICAMIDE] | – | – | – | – | 0 | 0 | 0 | 0 | 0 | 0 | – | 0 | 0 | 0 | 0 | 0 | 0 | 0 | – | 0 | –
8 | O=C(O[C@H]1C[C@H]2CC[C@@H](C1)[N+]21CCCC1)C(O)(c1ccccc1)c1ccccc1.[Cl-] [TROSPIUM CHLORIDE] | – | – | – | – | – | – | 0 | 0 | 0 | 0 | 0 | 0 | 0 | 0 | 0 | 0 | 0 | 0 | 0 | 0 | –
9 | N[C@@H]1[C@H]2CN(c3nc4c(cc3F)c(=O)c(C(=O)O)cn4-c3ccc(F)cc3F)C[C@@H]12 [TROVAFLOXACIN] | – | – | – | – | – | – | 1 | 0 | 0 | 0 | 0 | 1 | 1 | 1 | 0 | 1 | 0 | 0 | 0 | 5 | –
